In patent publication US20110186299A1, “Low-Toxicity Biodegradable Corrosion Inhibitors” (priority 2008, published 2011):

Legend:
[1] = Biodegradability in seawater (OECD Guideline 306); settings: marine environment
Description: The biodegradability tests are carried out in a marine environment according to the OECD Guideline 306.

[2] = test system: freshwater algae (Pseudokirchneriella subcapitata); test: Algal toxicity, growth inhibition of freshwater algae over 72 hours (OECD Guideline 201); format: cell-based; settings: inhibition of 50% of algal growth
Description: The toxicity of the substances for the environment can be measured with regard to various standardized tests. One of the more sensitive consists of the measurement of the toxicity with regard to freshwater algae (Pseudokirchneriella subcapitata). The test is carried out according to the OECD Guideline 201. It consists in evaluating the inhibition of the growth of the algae over a period of time of 72 hours. The characteristic parameter is the EC50, which is the concentration of the substance which brings about inhibition of 50% of the algal growth during the test.

Molecule	OECD 306 Biodegradability, % of biodegradation in 28 days [1]	Algal toxicity (EC50 in mg/l) [2]
CCCCCCCCC=CCCCCCCCC1=NCCN1CCN [Imidazoline A, N-aminoethyl-2-heptadecenylimidazoline]	57%	0.0047 mg/L
N-aminoethyl-2-heptadecenylimidazoline maleate [Example 2]	66%	1 mg/L
